From patent US20260053811A1, “METHODS OF TREATING HYPERTENSION IN OBESE SUBJECTS” (Mineralys Therapeutics, Inc., priority 2022, published 2026)

Test system: hypertensive subjects
Test: Seated automated office blood pressure (AOBP) in randomized, placebo-controlled, dose-ranging study
Assay type: in vivo, human
Parameters: Difference from placebo in change in blood pressure: unit not given here
Method: A randomized, double-blinded, placebo-controlled, dose-ranging, multicenter study was conducted to evaluate the effect of orally administered Compound A HBr on blood pressure for the treatment of hypertension in male and female subjects ≥18 years of age.
The study consists of two parts. For enrollment into Part 1 of the study, a subject's value of plasma renin activity (PRA) must be ≤1 ng/mL/h based on morning measurement. If the value of PRA >1 ng/mL/h based on morning measurement, then subjects may be eligible to enter Part 2 of the study.
For Part 1, 163 enrolled subjects ≥18 years of age were randomized into 6 equal treatment groups (1:1:1:1:1:1) to 12.5 mg BID, 25 mg BID, 12.5 mg QD, 50 mg QD, 100 mg QD, or placebo. After a review of interim clinical data, the 2 lowest dose levels (12.5 mg QD and 12.5 mg BID) were stopped for future randomization due to a lack of consistent meaningful reduction of blood pressure, but the patients randomized to that point remained in the study through completion. Thus, after the review of interim clinical data, subjects were randomized into 4 equal treatment groups (1:1:1:1) to 25 mg BID, 50 mg QD, 100 mg QD, or placebo.
For Part 2, 36 enrolled subjects ≥18 years of age were randomized (5:1) to either 100 mg QD Compound A HBr or placebo such that the Compound A HBr treatment group consisted of approximately 30 subjects and the placebo treatment group will consist of approximately 6 subjects.
Subjects orally administered the assigned study drug (Compound A HBr or placebo) according to the assigned dosing regimen for 8 weeks beginning on Study Day 1. All subjects in Part 1 (regardless of dosing group) received BID dosing to preserve the integrity of the blind; active drug is administered as the morning dose for all QD dose groups. Subjects returned to the research facility or were seen by the clinical investigator or approved home health care professional at the end of Study Weeks 1, 2, 3, 4, 5, 6, 7, and 8 (±2 days) for protocol-defined efficacy and safety assessments and procedures, assessment of adverse events (AEs), and confirmation of compliance with study drug usage. Subjects also completed a telephone visit and blood pressure (BP) check at home approximately 3 days post last dose of study drug. Subjects attended up to 14 full clinic visits, including a pre-Screening visit, a Screening/start of Placebo Run-in visit, a second visit during Placebo Run-in, a clinic visit to initiate the ABPM procedure, a Randomization visit, 8 weekly visits during double-blind treatment, and an end-of-study visit scheduled 4 weeks after the last study treatment for final efficacy and safety assessments.
An automated oscillometric sphygmomanometer device was used to measure the subjects' systolic and diastolic blood pressure in office after approximately 5 minutes of rest in the seated position.
The primary endpoint is the change in office-measured (mean of last 2 of 5 unattended measurements using an automated oscillometric sphygmomanometer device after approximately 5 minutes of rest in the seated position) systolic blood pressure (SBP) from baseline to the end of Study Week 8.
Secondary endpoints of this study were: • (a) Change in 24-hour ambulatory blood pressure monitoring (ABPM) parameters (systolic and diastolic) from baseline to the end of Study Week 7. • (b) Change in office-measured SBP from baseline to the end of Study Weeks 1, 2, 3, 4, 5, 6, and 7. • (c) Change in office-measured diastolic blood pressure (DBP) from baseline to the end of Study Weeks 1, 2, 3, 4, 5, 6, 7, and 8. • (d) Proportion of subjects who achieve office-measured BP of ≤130/80 mm Hg by the end of Study Week 8.

[1] = 12.5 mg QD, Week 1, Part 1, FAS
[2] = 12.5 mg QD, Week 2, Part 1, FAS
[3] = 12.5 mg QD, Week 3, Part 1, FAS
[4] = 12.5 mg QD, Week 4, Part 1, FAS
[5] = 12.5 mg QD, Week 5, Part 1, FAS
[6] = 12.5 mg QD, Week 6, Part 1, FAS
[7] = 12.5 mg QD, Week 7, Part 1, FAS
[8] = 12.5 mg QD, Week 8, Part 1, FAS

CC(=O)N[C@H]1CC[C@H](NC(=O)CN2CCN(c3nncc(-c4ccc(C)cc4)n3)CC2)CC1 [Compound A HBr]
Difference from placebo in change in blood pressure (12.5 mg QD, BMI >30): −2.5 | Difference from placebo in change in blood pressure (12.5 mg QD, Baseline BPsys Low tertile): −10.7 | Difference from placebo in change in blood pressure (12.5 mg QD, Thiazide No): 2.6 | Seated AOBP DBP change from baseline (CFB), Mean (SD) [1]: 2.87 (12.31) mmHg | Seated AOBP DBP, Mean (SD) [1]: 85.26 (13.88) mmHg | Seated AOBP SBP change from baseline (CFB), Mean (SD) [1]: −5.65 (13.96) mmHg | Seated AOBP SBP, Mean (SD) [1]: 141.43 (15.98) mmHg | Seated AOBP DBP change from baseline (CFB), Mean (SD) [2]: 0.68 (8.89) mmHg | Seated AOBP DBP, Mean (SD) [2]: 81.23 (9.21) mmHg | Seated AOBP SBP change from baseline (CFB), Mean (SD) [2]: −1.86 (16.36) mmHg | Seated AOBP SBP, Mean (SD) [2]: 143.73 (17.32) mmHg | Seated AOBP DBP change from baseline (CFB), Mean (SD) [3]: −1.20 (9.13) mmHg | Seated AOBP DBP, Mean (SD) [3]: 81.80 (13.73) mmHg | Seated AOBP SBP change from baseline (CFB), Mean (SD) [3]: −4.15 (13.14) mmHg | Seated AOBP SBP, Mean (SD) [3]: 142.80 (18.14) mmHg | LSM Δ with Placebo, seated AOBP DBP (MMRM) [4]: −1.96 mmHg | Modelled (MMRM) LSM (SEM) change from baseline, seated AOBP DBP [4]: −2.50 (1.60) mmHg | Seated AOBP DBP change from baseline (CFB), Mean (SD) [4]: −1.80 (9.84) mmHg | Seated AOBP DBP, Mean (SD) [4]: 81.20 (14.03) mmHg | Seated AOBP SBP change from baseline (CFB), Mean (SD) [4]: −3.95 (15.74) mmHg | Seated AOBP SBP, Mean (SD) [4]: 143.00 (18.03) mmHg | Seated AOBP DBP change from baseline (CFB), Mean (SD) [5]: 0.82 (14.46) mmHg | Seated AOBP DBP, Mean (SD) [5]: 83.74 (14.32) mmHg | Seated AOBP SBP change from baseline (CFB), Mean (SD) [5]: −3.53 (12.49) mmHg | Seated AOBP SBP, Mean (SD) [5]: 144.21 (13.11) mmHg | Seated AOBP DBP change from baseline (CFB), Mean (SD) [6]: −4.17 (10.04) mmHg | Seated AOBP DBP, Mean (SD) [6]: 79.06 (13.07) mmHg | Seated AOBP SBP change from baseline (CFB), Mean (SD) [6]: −8.64 (16.52) mmHg | Seated AOBP DBP change from baseline (CFB), Mean (SD) [7]: −6.11 (12.05) mmHg | Seated AOBP DBP, Mean (SD) [7]: 77.11 (12.74) mmHg | Seated AOBP SBP change from baseline (CFB), Mean (SD) [7]: −11.08 (19.26) mmHg | Seated AOBP SBP, Mean (SD) [7]: 136.56 (19.58) mmHg | LSM Δ from Placebo, change from baseline in seated AOBP SBP (MMRM) [8]: −1.53 mmHg | LSM Δ with Placebo, seated AOBP DBP (MMRM) [8]: −2.12 mmHg | Modelled (MMRM) LSM (SEM) change from baseline, seated AOBP DBP [8]: −3.76 (2.02) mmHg | Modelled (MMRM) LSM (SEM) change from baseline, seated AOBP SBP [8]: −5.63 (3.16) mmHg | Seated AOBP DBP change from baseline (CFB), Mean (SD) [8]: −1.78 (13.33) mmHg | Seated AOBP DBP, Mean (SD) [8]: 81.44 (17.24) mmHg | Seated AOBP SBP change from baseline (CFB), Mean (SD) [8]: −6.86 (19.85) mmHg | Seated AOBP SBP, Mean (SD) [8]: 140.78 (22.01) mmHg | Subjects with seated AOBP SBP/DBP ≤130/80 mmHg: No [8]: 17 (73.9) n (%) | Subjects with seated AOBP SBP/DBP ≤130/80 mmHg: Yes [8]: 6 (26.1) n (%) | Difference from placebo in change in blood pressure (25 mg BID, BMI 25-30): −1.1 | Difference from placebo in change in blood pressure (25 mg BID, BMI >30): −9.1 | Proportion of subjects with AOBP ≤130/80 mmHg (25 mg BID, Part 1, Week 8): 43.3% | Difference from placebo in change in blood pressure (25 mg BID, Thiazide No): −4.7
